The values that follow are results of earlier work, collected in patent US6749867B2, “Delivery system for omeprazole and its salts” (priority 2000, dated 2004).

Where two headings read alike, the source gives them in different places.

The conditions of series [1]: in vivo.
Assay in series [2]: not given
The source holds these as a separate data set.

Consider `COc1ccc2[nH]c([S+]([O-])Cc3ncc(C)c(OC)c3C)nc2c1` (stereo not drawn) [omeprazole, Omeprazole], for which the plasma half-life entry in series [1] is listed as “about 60 minutes”. Moreover, the half-life of degradation result is listed as “less than 10 minutes” (acidic aqueous solutions, pH values below 4); “about 18 hours” (pH 6.5); “several hundred” (pH 11). Besides, the “solubility in alkaline solution” value in series [2] (alkaline solution, as the negatively charged ion) was “very soluble”. Further, the solubility in water entry in series [2] (water) is listed as “very slightly soluble”.
